Laboratory results as given in patent US6432979B1, “Method of treating or inhibiting colonic polyps and colorectal cancer” (American Cyanamid Company, priority 1999, dated 2002).

Test system: intestinal polyps (adenomas)
Test: in vivo standard pharmacological test procedure emulating familial adenomatous polyps (FAP) using the Min mouse; polyp count
Parameters: species or system Min mouse (C57BL/6J-Min/+)
Conditions: for Number of Polyps: 60 days
Excerpt: The procedure described below emulates familial adenomatous polyps (FAP) in humans using the Min mouse (C57BL/6J-Min/+), which is a strain which has lost […] copies of the APC gene. These animals develop multiple intestinal polyps (adenomas) that ultimately progress to form adenocarcinomas. The polyps that develop in Min mice express EGFR and have activated COX-2. […] The following briefly describes the procedure used and the results obtained in this standard pharmacological test procedure.
The animals were treated for 60 days. The food was weighed once per week to determine consumption, and the animals also weighed weekly. On day 61, the animals were euthanized with CO2 inhalation, and the entire intestinal tract from stomach to anus was removed. The intestinal tract was injected with Bouins fixative, and allowed to fix for several days. The intestinal tracts were then opened and the number of polyps counted. Statistical analysis was performed using the Student's t-Test; a p value of ≦0.05 is considered statistically significant.
The above standard pharmacological test procedure was run again using (4-dimethylamino-but-2-enoic acid [4-(3-chloro-4-fluoro-phenylamino)-3-cyano-7-ethoxy-quinolin-6-yl]-amide as a representative EGFR kinase inhibitor, as follows. Test animals were divided into four treatment groups: Group I, control; Group II, (4-dimethylamino-but-2-enoic acid [4-(3-chloro-4-fluoro-phenylamino)-3-cyano-7-ethoxy-quinolin-6-yl]-amide Group III, sulindac; and Group IV, combination of sulindac and (4-dimethylamino-but-2-enoic acid [4-(3-chloro-4-fluoro-phenylamino)-3-cyano-7-ethoxy-quinolin 6-yl]-amide. The test compound was blended with a standard murine chow and animals were given ad libitum access to the food, in quantities corresponding to the following approximate daily dosages: Group II—20 mg/kg/(4-dimethylamino-but-2-enoic acid [4-(3-chloro-4-fluoro-phenylamino)-3-cyano-7-ethoxy-quinolin-6-yl]-amide, Group III—5 mg/kg/day sulindac; and Group IV—20 mg/kg/(4-dimethylamino-but-2-enoic acid [4-(3-chloro-4-fluoro-phenylamino)-3-cyano-7-ethoxy-quinolin-6-yl]-amide and 5 mg/kg/day sulindac. The animals were treated for 60 days. The food was weighed once per week to determnine consumption, and the animals also weighed weekly. On day 61, the animals were euthanized with CO2 inhalation, and the entire intestinal tract from stomach to anus was removed. The intestinal tract was injected with Bouins fixative, and allowed to fix for several days. The intestinal tracts were then opened and the number of polyps counted. Statistical analysis was performed using the Students t-Test; a p value of ≦0.05 is considered statistically significant.

SMILES | Number of Polyps (first run, 20 mg/kg/day sulindac in chow, counted day 61, control 32.3 ± 20.7) | Number of Polyps (third run, 5 mg/kg/day sulindac in chow, control 19.5 ± 14.1) | reduction of polyp numbers (in words) (third run, sulindac alone at the 5 mg/kg dose) | Number of Polyps (first run, 40 mg/kg/day in chow, counted day 61, control 32.3 ± 20.7)
CC1=C(CC(=O)O)c2cc(F)ccc2/C1=C\c1ccc([S+](C)[O-])cc1 (stereo not shown) [sulindac] | 10.0 ± 6.6 | 20.6 ± 11.8 | did not reduce polyp numbers at all | 
CC#CC(=O)Nc1ccc2ncnc(Nc3cccc(Br)c3)c2c1 |  |  |  | 15.6 ± 10.6
